# Data reported in paper PMC9863266, “Preclinical Studies and Drug Combination of Low-Cost Molecules for Chagas Disease” (Pharmaceuticals, 2022).
# Key:
# [1] = tested on: Salmonella typhimurium strains TA98, T100, T102, TA1535, and TA1537; assay: Ames test (mutagenicity); type: cell-based; conditions: for Ames test TA98 revertant colonies / Ames test TA100 revertant colonies / Ames test TA102 revertant colonies / Ames test TA1535 revertant colonies / Ames test TA1537 revertant colonies: absence of metabolic activation
# Protocol: The mutagenic capacity of the compounds was determined from a 2 × 10^9 CFU/mL culture in Oxoid No. 2 medium in the exponential phase of Salmonella typhimurium strains TA98, T100, T102, TA1535, and TA1537 (hisD3052, histidine-dependent). Five serial dilutions to the third in DMSO were evaluated, starting from the maximum non-toxic dose estimated from the results of the toxicity test carried out initially. Positive controls were performed with 4-nitro-o-phenylenediamine (20 µg/plate) in the case of mutagenicity without activation. DMSO (50 µL/plate) and phenotype control (resistance to ampicillin, tetracycline, crystal violet, and sensitive UV light) were used as negative control. Compounds were incubated for 1 h at 37 °C in 2 mL of an agar solution containing 200 µL of histidine solution [(0.5 mM)/biotin (0.5 mM)]. It was then grown on glucose minimal agar for 48 h at 37 °C. When the effect of the metabolization on the compounds was studied, the S9 fraction (Gibco™, Thermo Fisher Scientific, Grand Island, NY, US) […] and expressed as the mean of duplicates ± standard deviation. The product was considered mutagenic when the number of revertant colonies doubled that of the negative control in at least two consecutive doses. The preparation of the bacterial suspension, the dissolution of the S9 fraction, the product, and the first part of the test (until the tubes with all the solutions were transferred to the stove for incubation) was carried out under sterile conditions, in a laboratory laminar flow and with sterile material (autoclave at 121 °C for 20 min or maintaining the manufacturer’s sterility). The addition of the histidine/biotin solution and the seeding of the plates were carried out under an upward air current generated by a burner.
# [2] = Acute oral toxicity in mice (Up and Down test); type: in vivo; conditions: CD1 and Balb/c, mouse, in vivo; oral, microemulsion
# Protocol: (§1) After verifying, through the studies indicated above, the low in vitro and in vivo toxicity and the potent trypanosomicidal activity of these molecules and following the steps of preclinical drug development, the acute oral toxicity in vivo in mice was tested. For this study, the compounds were administered orally in the same microemulsion that was used in the pharmacological study on the acute model of Chagas disease. The initial number of animals is defined by the software AOT425 Stat and also depends on if there are LD50 of compounds with similar structures. Variable numbers of animals could be used if there is some toxicity observed during the first administrations. […]. In this case, one of the animals died 10 days post-administration. The LD50 calculated by the statistical program from these experiments was 2000 mg/kg b.w., the maximal dose being used for oral administration. As a result, compound 793 has low acute toxicity in these conditions. For compound 1019, a maximum dose of 2000 mg/kg b.w. was started orally in five mice until one of the ends of the trial criteria was met. […] Throughout the test, during the 14 days, the mice were evaluated by the Irwin test and their masses were recorded. […]
# CD1 and Balb/c mice = assay: Acute oral toxicity in mice (Up and Down test); type: in vivo; conditions: 14 days
# Protocol: as §1
# [3] = target: triosephosphate isomerase recombinant enzyme of T. cruzi (TcTIM); conditions: cited from earlier work
# T. cruzi epimastigotes = conditions: read-out: In vitro anti-T. cruzi activity (multiple strains) (IC50); cited from earlier work
# [4] = tested on: Leishmania spp (cutaneous) promastigotes; set-up: method as in earlier work; conditions: read-out: In vitro anti-Leishmania spp (cutaneous) activity (IC50); cited from earlier work
structure (smiles),measurement,setting,value
O=C(/C=C/C=C/c1ccco1)/C=C/C=C/c1ccco1 [Compound 793],Ames test (mutagenicity),[1],NO
same,Ames test TA98 revertant colonies,[1]; 6 μg/plate,5±2
same,Ames test TA100 revertant colonies,[1]; 6 μg/plate,89±3
same,Ames test TA102 revertant colonies,[1]; 6 μg/plate,171±1
same,Ames test TA1535 revertant colonies,[1]; 6 μg/plate,8±1
same,Ames test TA1537 revertant colonies,[1]; 6 μg/plate,16 ± 1
same,Ames test TA98 revertant colonies,[1]; 18 μg/plate,9±3
same,Ames test TA100 revertant colonies,[1]; 18 μg/plate,76±5
same,Ames test TA102 revertant colonies,[1]; 18 μg/plate,176±1
same,Ames test TA1535 revertant colonies,[1]; 18 μg/plate,12±1
same,Ames test TA1537 revertant colonies,[1]; 18 μg/plate,18±1
same,Ames test TA98 revertant colonies,[1]; 55 μg/plate,3±1
same,Ames test TA100 revertant colonies,[1]; 55 μg/plate,74±6
same,Ames test TA102 revertant colonies,[1]; 55 μg/plate,194±3
same,Ames test TA1535 revertant colonies,[1]; 55 μg/plate,14± 3
same,Ames test TA1537 revertant colonies,[1]; 55 μg/plate,24± 4
same,Ames test TA98 revertant colonies,[1]; 166 μg/plate,3 ± 1
same,Ames test TA100 revertant colonies,[1]; 166 μg/plate,58±3
same,Ames test TA102 revertant colonies,[1]; 166 μg/plate,203±2
same,Ames test TA1535 revertant colonies,[1]; 166 μg/plate,18±1
same,Ames test TA1537 revertant colonies,[1]; 166 μg/plate,28± 3
same,Ames test TA98 revertant colonies,[1]; 500 μg/plate,5±1
same,Ames test TA100 revertant colonies,[1]; 500 μg/plate,69±1
same,Ames test TA102 revertant colonies,[1]; 500 μg/plate,222±6
same,Ames test TA1535 revertant colonies,[1]; 500 μg/plate,20±1
same,Ames test TA1537 revertant colonies,[1]; 500 μg/plate,30 ± 3
same,LD50 at 14 days,[2],2000 mg/kg
same,"Signs of acute toxicity (Irwin test, body mass)",CD1 and Balb/c mice,did not show signs of acute toxicity
same,IC50,[3],3 µM
same,IC50,T. cruzi epimastigotes,5 µM
same,IC50,[4],36 µM
